This note sets out measurements from ChEMBL document CHEMBL5518164, “Membrane-permeable tenofovir-di- and monophosphate analogues” (Eur J Med Chem, 2024).

The structures appear in SMILES notation. Activity calls are given as the source filed them. The calls are words filed in the database; no cut-off is given here.

The nature of series [1]: Cytotoxicity against human CEM cells assessed as inhibition of cell proliferation. It is filed as toxicity, cell-based, CCRF-CEM.
The nature of series [2]: Half life of the compound in citrate-containing human plasma by HPLC analysis. It is filed as ADME, cell-free.
A short description of series [3]: Half life of the compound in phosphate buffer saline at pH 7.3 by RP18-HPLC analysis. It is filed as ADME.
A short description of series [4]: Selectivity index, ratio of CC50 for cytotoxicity against human CEM cells to EC50 for antiviral activity against HIV-2 ROD infected in thymidine kinase deficient human CEM cells. It counts as toxicity, cell-based. The following applies: read-out: Ratio CC50/EC50.
The test system of series [5] is Human immunodeficiency virus. Put plainly: Substrate activity at HIV reverse transcriptase assessed as n+1 band formation incubated for 30 mins in presence of primer/template mixture and dNTPs by primer extension assay based fluorescence analysis.
Series [6] deals with Human immunodeficiency virus 2. Put plainly: Antiviral activity against HIV-2 ROD infected in wild type human CEM/0 cells assessed as inhibition of virus-induced giant cell formation incubated for 4 to 5 days by light microscopy. It counts as functional, organism-based. The note with it: Human immunodeficiency virus 2, ROD, CCRF-CEM.
Series [7] can be described thus: Half life of the compound in heparin-stabilized human plasma by HPLC analysis. It counts as ADME, cell-free.
Series [8] has as its target T1, DNA polymerase subunit gamma-1 (Homo sapiens) (UniProt P54098).
T1 sequence (whole entry): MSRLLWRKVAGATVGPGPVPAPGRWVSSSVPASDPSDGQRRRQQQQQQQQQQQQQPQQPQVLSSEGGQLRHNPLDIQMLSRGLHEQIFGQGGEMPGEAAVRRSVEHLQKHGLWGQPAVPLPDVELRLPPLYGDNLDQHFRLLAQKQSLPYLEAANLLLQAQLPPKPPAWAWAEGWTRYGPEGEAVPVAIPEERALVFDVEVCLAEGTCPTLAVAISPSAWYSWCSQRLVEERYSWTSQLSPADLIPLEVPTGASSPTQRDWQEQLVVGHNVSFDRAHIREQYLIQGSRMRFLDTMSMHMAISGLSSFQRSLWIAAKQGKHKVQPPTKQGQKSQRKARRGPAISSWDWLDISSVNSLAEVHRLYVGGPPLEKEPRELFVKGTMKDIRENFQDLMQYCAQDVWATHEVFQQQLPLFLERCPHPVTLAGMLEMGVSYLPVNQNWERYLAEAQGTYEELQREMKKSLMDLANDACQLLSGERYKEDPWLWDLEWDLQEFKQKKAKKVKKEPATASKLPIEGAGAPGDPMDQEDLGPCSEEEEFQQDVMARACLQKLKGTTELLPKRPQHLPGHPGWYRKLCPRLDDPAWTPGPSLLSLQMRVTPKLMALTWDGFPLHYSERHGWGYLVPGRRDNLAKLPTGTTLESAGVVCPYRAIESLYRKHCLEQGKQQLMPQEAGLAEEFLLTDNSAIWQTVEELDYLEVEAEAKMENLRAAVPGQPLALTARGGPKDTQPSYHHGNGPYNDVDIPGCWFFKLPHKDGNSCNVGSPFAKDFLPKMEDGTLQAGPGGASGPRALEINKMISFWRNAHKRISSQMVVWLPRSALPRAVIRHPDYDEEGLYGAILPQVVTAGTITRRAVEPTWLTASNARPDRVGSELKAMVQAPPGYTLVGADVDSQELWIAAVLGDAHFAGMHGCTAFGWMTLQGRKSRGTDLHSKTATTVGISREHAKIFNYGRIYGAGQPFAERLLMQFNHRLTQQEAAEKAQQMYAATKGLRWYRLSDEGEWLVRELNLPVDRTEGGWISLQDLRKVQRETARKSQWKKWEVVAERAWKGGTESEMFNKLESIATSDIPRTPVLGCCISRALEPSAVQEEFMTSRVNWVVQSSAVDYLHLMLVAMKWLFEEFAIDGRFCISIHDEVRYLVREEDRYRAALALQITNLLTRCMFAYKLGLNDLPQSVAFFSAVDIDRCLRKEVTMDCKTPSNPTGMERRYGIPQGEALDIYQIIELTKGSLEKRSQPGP
Put plainly: Substrate activity at human DNA polymerase gamma assessed as n+1 band formation incubated for 120 mins in presence of primer/template mixture and dNTPs by primer extension assay based fluorescence analysis.

Series [9] can be described thus: Lipophilicity of the compound assessed as retention time by RP-HPLC analysis. It counts as physicochemical.
Series [10] is described as follows: Half life of the compound in human CEM/0 cell extracts by RP18-HPLC analysis. It is filed as ADME, CCRF-CEM.
Series [11] is described as follows: Drug metabolism in heparin-stabilized human plasma assessed as (R)-9-(2-(phosphonomethoxy)propyl)adenine formation by HPLC analysis. It counts as ADME, cell-free.
Series [12] has as its target DNA polymerase beta (Homo sapiens) (UniProt P06746). The series can be described thus: Substrate activity at human DNA polymerase beta assessed as n+1 band formation incubated for 120 mins in presence of primer/template mixture and dNTPs by primer extension assay based fluorescence analysis.
For series [13], the system named is Human immunodeficiency virus 1. The series can be described thus: Antiviral activity against HIV-1 HE infected in wild type human CEM/0 cells assessed as inhibition of virus-induced giant cell formation incubated for 4 to 5 days by light microscopy. It is filed as functional, organism-based. The following applies: Human immunodeficiency virus 1, HE, CCRF-CEM.

Series [14] is described as follows: Half life of the compound in phosphate buffer saline in presence of pig liver esterase at pH 7.3 by RP18-HPLC analysis. It counts as ADME, Sus scrofa.
Series [15] relates to Human immunodeficiency virus 2. The series can be described thus: Antiviral activity against HIV-2 ROD infected in thymidine kinase deficient human CEM cells assessed as inhibition of virus-induced giant cell formation incubated for 4 to 5 days by light microscopy. It counts as functional, organism-based. The note with it: Human immunodeficiency virus 2, ROD, CCRF-CEM.

What is called CC50 is the concentration that lowers cell viability or growth by half. The half-life is the time in which the quantity being followed falls by half. In general, EC50 refers to the concentration giving half of the maximal effect. Regarding `CCCCCCCCCCCCCCCCCCOP(=O)(OCCCC)OP(=O)(O)OP(=O)(O)CO[C@H](C)Cn1cnc2c(N)ncnc21` (stereo not given in full), the CC50 in series [1] worked out at 44.3 µM. Moreover, the half-life is above 8 h in series [2]; 257 h in [3]; above 8 h in series [7]; above 20 h in [10]; above 100 h in [14]. Further, the selectivity ratio in series [4] is 3690. Moreover, the outcome in [5] was Active. Also, the EC50 in [6] is 0.019 µM; in series [13], 0.047 µM; in [15], 0.012 µM. Also, the outcome in series [8] and in [12] was inactive. Besides, the Retention_time in series [9] is recorded as 15.5 min. In addition, the Drug metabolism entry in series [11] was “Metabolite_Detected”.
Regarding `CCCCCCCCCCCCCCCCCCP(=O)(OCCCC)OP(=O)(O)CO[C@H](C)Cn1cnc2c(N)ncnc21` (stereo not given in full), in series [1], the CC50 is 37.8 µM. Also, the half-life in series [2] is above 5 h; in series [3], 27 h; in series [7] it was above 5 h; in series [10] it was 5.1 h; in [14], 24 h. Also, the selectivity ratio in [4] was determined as 14000. Also, the outcome in series [5], in [8] and in series [12] was inactive. The EC50 in series [6] stood at 0.003 µM; in [13], 0.035 µM; in series [15], 0.002 µM. In series [9], the Retention_time was 18.1 min. Besides, the Drug metabolism entry in [11] was “Metabolite_Detected”.
For `CCCCCCCCCCCCCCCCCCP(=O)(OCCCC)OP(=O)(O)OP(=O)(O)CO[C@H](C)Cn1cnc2c(N)ncnc21` (stereo not given in full), in [1], the CC50 was 44.6 µM. In addition, the half-life in series [2] is above 8 h; in [3], above 500 h; in series [7], above 8 h; in [10], above 8 h; in series [14], above 100 h. The selectivity ratio in series [4] came out at 1350. The outcome in [5], in [8] and in series [12] was inactive. The figures for the concentration giving a half-maximal response (EC50) in [6], in series [13] and in series [15] were 0.062 µM, 0.078 µM and 0.033 µM, respectively. Also, the Retention_time in series [9] came out at 15.2 min. In [11], the Drug metabolism entry was “Metabolite_Detected”.
